For one data set, the target named is T1, human oxytocin receptor (Homo sapiens, UniProt P30559).
T1 construct: host or cells: CHO cells, stably transfected (pcDNA3.1 vector)
T1 sequence (P30559 1-389): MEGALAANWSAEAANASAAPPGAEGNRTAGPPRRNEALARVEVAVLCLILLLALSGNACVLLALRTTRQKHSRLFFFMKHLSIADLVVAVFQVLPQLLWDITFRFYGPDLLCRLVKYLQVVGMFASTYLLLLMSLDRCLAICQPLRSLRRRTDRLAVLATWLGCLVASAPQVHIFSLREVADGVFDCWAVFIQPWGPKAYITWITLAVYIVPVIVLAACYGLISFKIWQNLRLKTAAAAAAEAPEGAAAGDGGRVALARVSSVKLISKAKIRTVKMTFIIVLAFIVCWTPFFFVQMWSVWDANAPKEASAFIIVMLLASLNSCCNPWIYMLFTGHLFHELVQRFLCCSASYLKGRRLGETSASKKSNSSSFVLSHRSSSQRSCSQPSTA
The data set is described as follows: Oxytocin binding in CHO cell membranes expressing human oxytocin receptors. The conditions noted are these: [3H]oxytocin; for IC50: value in parentheses, read-out: OT IC50. An excerpt: Oxytocin binding in Chinese Hamster Ovary cell membranes expressing human oxytocin receptors
Chinese Hamster Ovary (CHO) cells stably transfected with the human oxytocin (cf. Tanizawa et al., U.S. Pat. No. 5,466,584 (1995) to Rohto Pharmaceutical Co. Ltd., Osaka, Japan) were obtained from M. Thibonnier, Case Western Reserve University School of Medicine, Cleveland, Ohio.
A. Passaging and Amplification of Cells:
CHO cells transfected with the human oxytocin receptors obtained from M. Thibonnier (pcDNA3.1 vector) are allowed to grow to confluency (approx. >90%) in T-150 flasks under sterile conditions, in a cell culture medium consisting of F-12 Nutrient Mixture (HAM) with L-glutamine (Gibco Cat.# 11765-054) containing 15 mM HEPES (Gibco Cat.# 15630-080), 1% antibiotic/antimycotic (add 5 mL 100×, Gibco Cat.# 15240-062 per 500 mL F-12), 400 μg/mL of Geneticin (add 4 mL of 50 mg/mL per 500 mL F-12) and 10% Fetal Bovine Serum (Qualified, heat inactivated, Gibco Cat.# 16140-063). The medium is removed by aspiration and the cells are washed with 10 mL of Hank's Balanced Salt solution (Gibco Cat.# 14175-095). The salt solution is removed by aspiration and the cells trypsinized with 5 mL of trypsin-EDTA (0.05% trypsin, 0.53 mM EDTA-4Na, Gibco Cat.# 25300-070) for 1 min The trypsin is removed by aspiration and the cells dislodged by tapping. Cell Culture medium (e.g. 30 mL for 1:30 split) is immediately added and mixed well to inactivate trypsin. 1 mL of detached cells is added to new culture flasks containing fresh Cell Culture medium (e.g. into 25 mL per T-150 flask), and mixed gently. The cells are incubated at 37° C. in 5% CO2. The medium is changed at 3 to 4 days interval (or as appropriate). The cells grow to confluency (approx. >75%-95%) within 7-8 days. All steps are done under sterile conditions.
The cells are washed twice gently with Hank's Balanced Salt solution (eg, use 10 mL per T-150 flask). The excess solution is removed and the cells bathed for 15-30 min. in an enzyme-free Cell Dissociation Buffer (eg, use 8 mL Hank's Based, Gibco Cat.# 13150-016 per T-150 flask) until cells are loosened. The contents are transferred to centrifuge tubes (50 mL size) kept in ice bath. All subsequent steps are done at 4° C. The tubes are centrifuged at 300×g for 15 min (1380 rpm on SORVAL, Model RT6000D, using rotor for 50 mL tubes). The supernatant is discarded and the cells suspended in homogenizing buffer (10 mM Tris-HCl containing 0.25 M sucrose and 1 mM EDTA, pH 7.4) ensuring that the volume of the buffer is about ten times the volume of the cell pellet. The cells are pooled into a centrifuge tube (50 mL) and homogenized with a Polytron at setting 6 for 10 sec. The homogenate is transferred into a Potter-Elvjehm homogenizer and homogenized with 3 strokes. The homogenate is centrifuged at 1500×g for 10 min at 4° C. (3100 rpm using SORVAL, model RT6000D, using rotor for 50 mL tubes). The pellet is discarded. The supernatant is centrifuged at 100,000×g for 60 min. at 4° C. (Beckman L8-80M ultracentrifuge; spin at 37,500 rpm with rotor type 70 Ti for 50 mL tubes; 38,000 rpm with type 80Ti for 15 mL tubes; or 35,800 rpm with rotor type 45Ti). The supernatant is discarded and the pellet suspended in 3 to 4 mL of Tris buffer (50 mM TRIS-HCl, pH 7.4). The protein content is estimated by the Bradford or Lowry method. The volume of the membrane suspension is adjusted with the membrane buffer (50 mM Tris-HCl containing 0.1 % BSA and 0.1 mM PMSF) to give 3.0 mg/mL (or as appropriate) of protein. The membranes are aliquoted and stored at −70° C.
C. Radioligand Binding Assay:
In wells of a 96-well format microtiter plate, is added 90, 110 or 130 μL (to make up a final volume of 200 μL) of assay buffer containing 50 mM of Tris-HCl (pH 7.4), […], 1 mg % aprotinin, 1 mg % leupeptin, 2 mg % 1,10-phenanthroline, 10 mg % trypsin inhibitor, and 0.1 mM PMSF. […]

Results on 13 molecules are retold here after patent publication US20030055046A1, “Novel pyrido cyclohexenyl phenyl carboxamides tocolytic oxytocin receptor antagonists” (Wyeth, priority 2001, published 2003).

Structures can show the parent of a compound that is named as a salt.

Molecule `COc1cc(C2=CCCCC2)c(Cl)cc1C(=O)N1Cc2ccc(C(=O)N(C)Cc3cccnc3)n2Cc2ccccc21` [Example 1, 10-(5-Chloro-4-cyclohex-1-en-1-yl-2-me3thoxybenzoyl)-N-methyl-N-(pyridin-3-ylmethyl)-10,11-dihydro-5H-pyrrolo [2,1-c][1,4]benzodiazepine-3-carboxamide] returned a melting point of 178 to 179 °C. Also, the IC50 on human oxytocin receptor was 4.47 nM.

Consider `COc1cc(C2=CCCCC2)c(Cl)cc1C(=O)N1Cc2ccc(C(=O)N(C)Cc3cccnc3)n2Cc2ccccc21` [Example 2, 10-(5-Chloro-4-cyclohex-1-en-1-yl-2-methoxybenzoyl)-N-methyl-N-(pyridin-3-ylmethyl)-10,11-dihydro-5H-pyrrolo[2,1-c][1,4]benzodiazepine-3-carboxamide L-(+)-tartaric acid salt hemihydrate], for which, on human oxytocin receptor, the IC50 came to 3.17 nM. In the case of `CC1=C(c2ccc(C(=O)N3Cc4ccc(C(=O)N(C)Cc5cccnc5)n4Cc4ccccc43)cc2C)CCC[C@H]1O` [Example 3, 10-[4-((3R)-3-Hydroxy-2-methyl-cyclohex-1-en-1-yl)-3-methyl-benzoyl]-10,11-dihydro-5H-pyrrolo[2,1-c][1,4]benzodiazepine-3-carboxylic acid methyl-pyridin-3-yl methyl-amide], the “OT % inhibition @ 100 nM” value on human oxytocin receptor worked out at 96%. Consider `CC1=C(c2ccc(C(=O)N3Cc4ccc(C(=O)N(C)Cc5cccnc5)n4Cc4ccccc43)cc2C)CCC[C@H]1O.O=C(O)C(O)C(O)C(=O)O` [Example 4, 10-[4-((3R)-3-Hydroxy-2-methyl-cyclohex-1-en-1-yl)-3-methyl-benzoyl]-10,11-dihydro-5H-pyrrolo[2,1-c][1,4]benzodiazepine-3-carboxylic acid methyl-pyridin-3-yl methyl-amide L-(+)-tartaric acid salt], for which the “OT % inhibition @ 100 nM” value at human oxytocin receptor was 99%. In the case of `Cc1cc(C(=O)N2Cc3ccc(C(=O)NCc4ccccn4)n3Cc3ccccc32)ccc1C1=CCCCC1` [Example 5, 10-[4-(1-Cyclohex-1-en-1-yl)-3-methylbenzoyl]-N-(2-pyridinylmethyl)-10,11-dihydro-5H-pyrrolo[2,1-c][1,4]benzodiazepine-3-carboxamide], the “OT % inhibition @ 100 nM” value on human oxytocin receptor was determined as 34%. Take `Cc1cc(C(=O)N2Cc3ccc(C(=O)NCc4cccnc4)n3Cc3ccccc32)ccc1C1=CCCCC1` [Example 6, 10-[4-(1-Cyclohex-1-en-1-yl)-3-methylbenzoyl]-N-(3-pyridinylmethyl)-10,11-dihydro-5H-pyrrolo[2,1-c][1 ,4]benzodiazepine-3-carboxamide]: the “OT % inhibition @ 100 nM” value at human oxytocin receptor is listed as 31%.

For the molecule `Cc1cc(C(=O)N2Cc3ccc(C(=O)NCCc4ccccn4)n3Cc3ccccc32)ccc1C1=CCCCC1` [Example 7, 10-[4-(1-Cyclohex-1-en-1-yl)-3-methylbenzoyl]-N-[2-(2-pyridinyl)ethyl]-10,11-pyrrolo[2,1-c][1,4]benzodiazepine-3-carboxamide], the “OT % inhibition @ 100 nM” value at human oxytocin receptor is 42%.

Take `Cc1cc(C(=O)N2Cc3ccc(C(=O)N(C)CCc4ccccn4)n3Cc3ccccc32)ccc1C1=CCCCC1` [Example 8, 10-[4-(1-Cyclohex-1-en-1-yl)-3-methylbenzoyl]-N-methyl-N-[2-(2-pyridinyl)ethyl]-10,11-dihydro-5H-pyrrolo[2,1-c][1 ,4]benzodiazepine-3-carboxamide]: the “OT % inhibition @ 100 nM” value at human oxytocin receptor came out at 84%. For `Cc1cc(C(=O)N2Cc3ccc(C(=O)N4CCN(c5ccccn5)CC4)n3Cc3ccccc32)ccc1C1=CCCCC1` [Example 9, {10-[4-(1-Cyclohex-1-en-1-yl)-3-methylbenzoyl]-10,11-dihydro-5H-pyrrolo[2,1-c][1,4]benzodiazepin-3-yl}[4-(2-pyridinyl)-1-piperazinyl]methanone], the “OT % inhibition @ 100 nM” value at human oxytocin receptor was found to be 37%. Consider `Cc1cc(C(=O)N2Cc3ccc(C(=O)NCc4ccncc4)n3Cc3ccccc32)ccc1C1=CCCCC1` [Example 10, 10-[4-(1-Cyclohex-1-en-1-yl)-3-methylbenzoyl]-N-(4-pyridinylmethyl)-10,11-dihydro-5H-pyrrolo[2,1-c][1,4]benzodiazepine-3-carboxamide], for which the “OT % inhibition @ 100 nM” value at human oxytocin receptor amounted to 45%. For `Cc1cc(C(=O)N2Cc3ccc(C(=O)N(C)Cc4cccnc4)n3Cc3ccccc32)ccc1C1=CCCCC1` [Example 11, 10-[4-(1-Cyclohex-1-en-1-yl)-3-methylbenzoyl]-N-methyl-N-(3-pyridinylmethyl)-10,11-dihydro-5H-pyrrolo[2,1-c][1,4]benzodiazepine-3-carboxamide], the “OT % inhibition @ 100 nM” value on human oxytocin receptor is listed as 87%. As to `Cc1cc(C(=O)N2Cc3ccc(C(=O)N4CCN(c5ccncc5)CC4)n3Cc3ccccc32)ccc1C1=CCCCC1` [Example 12, {10-[4-(1-Cyclohex-1-en-1-yl)-3-methylbenzoyl]-10,11-dihydro-5H-pyrrolo[2,1--c][1,4]benzodiazepin-3-yl}[4-(4-pyridinyl)-1-piperazinyl]methanone], the “OT % inhibition @ 100 nM” value on human oxytocin receptor stood at 98%. Still for that read-out and setting: for `Cc1cc(C(=O)N2Cc3ccc(C(=O)N(C)CCc4ccncc4)n3Cc3ccccc32)ccc1C1=CCCCC1` [Example 13, 10-[4-(1-Cyclohex-1-en-1-yl)-3-methylbenzoyl]-N-methyl-N-[2-(4-pyridinyl)ethyl]-10,11-dihydro-5H-pyrrolo[2,1-c][1,4]benzodiazepine-3-carboxamide] the value was 95%.
